Data as given in patent publication US20040023945A1, “CYCLIC AMP-SPECIFIC PHOSPHODIESTERASE INHIBITORS” (ICOS Corporation, priority 1999, published 2004).
Where two headings read alike, the source gives them in different places.

Experiments:
recombinant human PDE4 = assay: Inhibition of recombinant human PDE4 (cAMP hydrolysis); conditions: read-out: PDE4 IC50
Description: The compounds of structural formula (II) were tested for an ability to inhibit PDE4. […] The IC, value for compounds of structural formula (II) were determined using recombinant human PDE4.
Phosphodiesterase activity of the preparations was determined as follows. […] In this assay, PDE activity converts [32P]cAMP or [32P]cGMP to the corresponding [32P]5′-AMP or [32P]5′-GMP in proportion to the amount of PDE activity present. The [32P]5′-AMP or [32P]5′-GMP then was quantitatively converted to free [32P]phosphate and unlabeled adenosine or guanosine by the action of snake venom 5′-nucleotidase. […] The assay was performed at 30° C. in a 100 μL reaction mixture containing (final concentrations) 40 mM Tris HCl (pH 8.0), 1 μM ZnSO4, 5 mM MgCl2, and 0.1 mg/mL bovine serum albumin (BSA). […] PDE enzyme was present in quantities that yield<30% total hydrolysis of substrate (linear assay conditions). The assay was initiated by addition of substrate (1 mM [32P]cAMP or cGMP), and the mixture was incubated for 12 minutes. Seventy-five (75) μg of Crotalus atrox venom then was added, and the incubation was continued for 3 minutes (15 minutes total). The reaction was stopped by addition of 200 μL of activated charcoal (25 mg/mL suspension in 0.1 M NaH2PO4, pH 4). After centrifugation (750×g for 3 minutes) to sediment the charcoal, a sample of the supernatant was taken for radioactivity determination in a scintillation counter and the PDE activity was calculated.

[1] = tested on: human peripheral blood lymphocytes; assay: Lipopolysaccharide-stimulated TNFα release from human peripheral blood lymphocytes; format: cell-based; conditions: LPS-stimulated TNFα release from human PBL, read-out: PBL/TNFα EC50
Description: The compounds of structural formula (II) also were tested for an ability to reduce TNFα secretion in human peripheral blood lymphocytes. The ability to reduce TNFα secretion is related to the EC50 values (i.e., the effective concentration of the compound capable of inhibiting 50% of the total TNFα).
To assess the ability of a compound to reduce TNFα secretion in human peripheral blood lymphocytes (PBL), the following tests were performed.
Heparinized blood (approximately 30 mL) drawn from human volunteers was mixed 1:1 with Dulbecco's modified phosphate-buffered saline. This mixture was mixed 1:1 with HISTOPAQUE® and centrifuged at 1,500 rpm at room temperature without braking in the swinging bucket of a Beckman model TJ6 centrifuge. Erythrocytes were centrifuged to the bottom of the tubes, and serum remained at the surface of the tubes. A layer containing lymphocytes sedimented between the serum and HISTOPAQUE® layers, and was removed by aspiration to a fresh tube. The cells were quantified and adjusted to 3×10^6 cells/mL and a 100 μL aliquot is placed into the wells of a 96 well plate. Test compounds and RPMI media (Gibco/BRL Life Sciences) are added to each of the wells 15 minutes prior to addition of bacterial LPS ([…]). The mixture was allowed to incubate for 20 hours at 37° C. in a humidified chamber. The cells then were separated by centrifuging at 800 rpm for 5 minutes at room temperature. An aliquot of 180 μL of supernatant was transferred to a new plate for determination of TNFα concentration. TNFα protein in the cell supernatant fluids was measured using a commercially available enzyme-linked immunosorbent assay (ELISA) (CYTOSCREEN® Immunoassay Kit from Biosource International).
The cell-based assay provided the following results for various pyrrolidine compounds of the present invention. The EC50 values (i.e., effective concentration of the compound capable of inhibiting 50% of the total TNFα) illustrate the ability of the present compounds to inhibit LPS-stimulated TNFα release from human PBL.

mouse = assay: Subjective assessment of mouse immobility (CNS side effects); format: in vivo; conditions: for CNS Side Effects: subjective assessment of mouse immobility, 60 minutes
[2] = tested on: serum TNFα levels in LPS-injected mice; assay: Inhibition of serum TNFα levels in LPS-injected mice (Mouse/TNFα ED50); format: in vivo; conditions: for ED50: Mus musculus
Description: In order to assess the ability of a compound to reduce serum TNFα levels in mammals, the following protocol was employed. […] Accordingly, in vivo efficacy of a PDE4 reducing compound was shown by dosing with compound and measuring reduction of serum TNFα levels in LPS-injected mice. Female C3H mice, 20-25 gm body weight, were fasted overnight and dosed intraperitoneally with test compound in appropriate vehicle 60 minutes before LPS injection. Five μg of LPS was then injected intraperitoneally into the mice. Ninety minutes after LPS injection, mice were bled from the heart. Blood was allowed to clot overnight at 4° C. Samples were centrifuged for 10 minutes in a microcentrifuge and the serum removed and stored at −20° C. until analysis. Serum levels of TNFα were subsequently measured using a commercially available ELISA kit (Genzyme) following the protocol enclosed in the kit. The percent of inhibition of serum TNFα levels caused by the compound was determined relative to serum TNFα levels in control mice receiving vehicle alone. […]

ferret = assay: Emetic modeling in the ferret following oral and intravenous dosing; format: in vivo, Mustela putorius furo
Description: This study was conducted to investigate the emetogenic properties of PDE4 inhibitors in vivo. The ferret previously has been established as a valuable tool for assessing emesis following exposure to test compounds. […] Therefore, lack of and/or decrease in emetic potential of test compounds in ferrets predicts a favorable nonemetic effect in humans. Emesis is a complex physiological response to noxious agents that can be intiated peripherally or centrally.
The test animals were adult, castrated, and descented male ferrets (species=Mustela putorius furo, Strain=Sable) ranging in weight from about 1 to 1.5 kg. The tests were performed in quadruplicate on animals that were naive to PDE4 inhibitors. The PDE4 inhibitors were formulated in 10% Polyoxyl-35 castor oil (CREMOPHOR® EL, available from BASF Corporation, Parsippany, N.J.) in phosphate buffered saline (PBS), and were administered via i.v. injections into an indwelling catheter surgically positioned in the right external jugular vein at a rate of 0.66 mL per kg body weight. PDE4 inhibitors for oral consumption were formulated in 30% CREMOPHOR® EL in PBS, and administered by intubating animals with a 16-gauge feeding needle into the stomach. The animals received the PDE4 inhibitors in a volume of 1.33 mL per kg body weight.
All animals were fasted for 8 to 12 hours prior to administration of PDE4 inhibitors. Following administration of a PDE4 inhibitor, emetic and behavioral responses were quantified for three hours post dosing. The total number of emetic responses and vomiting episodes were quantified during the observation interval. In addition, latency time to first emetic episode, duration of emesis episodes, and gross behavioral changes including ataxia, profuse and viscous salivation, mouth clawing, hyperventilation, backward walking, flattened body posture, hyperactivity, lip licking, and general appearance were recorded.
For comparative purposes, the emetogenic effect of Samples 66 and 69 were tested intravenously at 1.0, 2.5, 5.0, and 10 mg/kg and orally at 2.5, 10, 17, and 25 mg/kg.

[3] = Mouse locomotor activity assay (decrease in spontaneous mobility); conditions: female, Balb/c, in vivo
Description: The purpose of this study was to determine the efficacy of PDE4 inhibitors in vivo in an LPS mouse model together with a determination with respect to central nervous system (CNS) side-effects manifested by a decrease in spontaneous mobility.
The test animals were female Balb/c mice, having an average weight of about 20 g. The PDE4 inhibitors, formulated in 30% Cremophor® EL, were administered via intraperitoneal (i.p.) injections at doses of 0.1, 1.0, 10.0, and 100 mg/kg. Individual dose volumes (about 150 μL) were adjusted based on the body weights measured. One hour later, 5 mg/kg LPS in a final volume of 200 μL was injected via the tail vein to each animal. Ninety minutes following the LPS treatment, the animals were bled and serum samples were collected before being stored at −70° C. until assayed.
Movement of the X-Y plane, or rearing up on the hind legs, was quantified by counting the number of “light-beam” crosses per unit of time. A decrease in the number of activity events is directly proportional to the mobility or immobilization of the animal. The quantitative scoring correlated well with the subjective measurements described above.

[4] = stereoisomer comparison table, read-out: Mouse/TNFα ED50

COC(=O)N1C[C@@H](c2ccc(OC)c(OC3Cc4ccccc4C3)c2)[C@](C)(C(C)O)C1 (stereo partly drawn) [Sample No. 61]
IC50 (recombinant human PDE4; human recombinant PDE4): 18.3 nM | IC50 (recombinant human PDE4; stereoisomer comparison table): 18.3 nM | EC50 [1]: 57.8 nM | CNS Side Effects (mouse; i.p. 1, 10 and 100 mg/kg): Little to no effect (at 50 mg/kg) | Mouse/TNFα ED50 ([2]; stereoisomer comparison table): 0.2 mg/kg

COC(=O)N1CC(c2ccc(OC)c(OC3CCCC3)c2)[C@@](C)([C@@H](C)O)C1 (stereo partly drawn) [(B)]
IC50 (recombinant human PDE4; stereoisomer comparison table): 61.1 nM | CNS Side Effects (mouse; i.p. 1, 10 and 100 mg/kg): No effect | ED50 [2, 4]: 12 mg/kg

COC(=O)N1C[C@@H](c2ccc(OC)c(OC3Cc4ccccc4C3)c2)[C@](C)(C(C)O)C1 (stereo partly drawn) [Sample No. 62]
IC50 (recombinant human PDE4; human recombinant PDE4): 6.8 nM | IC50 (recombinant human PDE4; stereoisomer comparison table): 6.8 nM | EC50 [1]: 10.2 nM | CNS Side Effects (mouse; i.p. 1, 10 and 100 mg/kg): Little to no effect (at 50 mg/kg) | Mouse/TNFα ED50 ([2]; stereoisomer comparison table): 0.08 mg/kg

COC(=O)N1CC(c2ccc(OC)c(OC3CCCC3)c2)[C@](C)([C@H](C)O)C1 (stereo partly drawn) [(D)]
IC50 (recombinant human PDE4; stereoisomer comparison table): 515 nM | CNS Side Effects (mouse; i.p. 1, 10 and 100 mg/kg): No effect

COC(=O)N1C[C@H](c2ccc(OC)c(OC3CCCC3)c2)[C@@](C)([C@H](C)O)C1 [(A)]
IC50 (recombinant human PDE4; human recombinant PDE4): 13.3 nM | IC50 (recombinant human PDE4; stereoisomer comparison table): 13.3 nM | Number of Emetic Events: Retches (ferret; intravenous 1.0 mg/kg): 0 | Number of Emetic Events: Total (ferret; intravenous 1.0 mg/kg): 0 | Number of Emetic Events: Vomits (ferret; intravenous 1.0 mg/kg): 0 | Responders (ferret; intravenous 1.0 mg/kg): 0/4 | Number of Emetic Events: Retches (ferret; intravenous 2.5 mg/kg): 3 | Number of Emetic Events: Total (ferret; intravenous 2.5 mg/kg): 3 | Number of Emetic Events: Vomits (ferret; intravenous 2.5 mg/kg): 0 | Responders (ferret; intravenous 2.5 mg/kg): 1/4 | Number of Emetic Events: Retches (ferret; intravenous 5.0 mg/kg): 300 | Number of Emetic Events: Total (ferret; intravenous 5.0 mg/kg): 300 | Number of Emetic Events: Vomits (ferret; intravenous 5.0 mg/kg): 0 | Responders (ferret; intravenous 5.0 mg/kg): 2/2 | outcome after intravenous dosing (ferret; intravenous 5 mg/kg body weight): one of the tested animals died almost immediately after dosing | Number of Emetic Events: Retches (ferret; oral 2.5 mg/kg): 0 | Number of Emetic Events: Total (ferret; oral 2.5 mg/kg): 0 | Number of Emetic Events: Vomits (ferret; oral 2.5 mg/kg): 0 | Responders (ferret; oral 2.5 mg/kg): 0/4 | Number of Emetic Events: Retches (ferret; oral 10.0 mg/kg): 27 | Number of Emetic Events: Total (ferret; oral 10.0 mg/kg): 32 | Number of Emetic Events: Vomits (ferret; oral 10.0 mg/kg): 5 | Responders (ferret; oral 10.0 mg/kg): 3/4 | Number of Emetic Events: Retches (ferret; oral 17.0 mg/kg): 51 | Number of Emetic Events: Total (ferret; oral 17.0 mg/kg): 58 | Number of Emetic Events: Vomits (ferret; oral 17.0 mg/kg): 7 | Responders (ferret; oral 17.0 mg/kg): 3/4 | Number of Emetic Events: Retches (ferret; oral 25.0 mg/kg): 88 | Number of Emetic Events: Total (ferret; oral 25.0 mg/kg): 114 | Number of Emetic Events: Vomits (ferret; oral 25.0 mg/kg): 26 | Responders (ferret; oral 25.0 mg/kg): 4/4 | emetic response, comparison of compounds (ferret; oral or intravenous): much stronger emetic response than compound (C) | EC50 ([1]; Homo sapiens, Lymphocyte): 57 nM | mouse mobility assessment (footnote statement) (mouse; i.p. 1, 10 and 100 mg/kg, 60 minutes time frame): mice were affected at all doses | outcome at the highest dose (mouse; mouse, i.p., highest dose (100 mg/kg)): mice became moribund and died within 10 minutes of treatment | CNS Side Effects (mouse; i.p. 1, 10 and 100 mg/kg): Severe | ED50 [2, 4]: 7 mg/kg

COc1ccc([C@@H]2CN(C(=O)[C@H](O)C3CCCCC3)C[C@@]2(C)[C@@H](C)O)cc1OC1CCCC1 [Example 91, (2R)-1-[3-((1R)-1-Hydroxyethyl)(3S,4S)-4-(3-cyclopentyloxy-4-methoxyphenyl)-3-methylpyrrolidinyl]-2-cyclohexyl-2-hydroxyethan-1-one]
EC50 ([1]; Homo sapiens, Lymphocyte): 44 nM

COc1ccc([C@@H]2CN(C(=O)[C@H](N)CO)C[C@@]2(C)[C@@H](C)O)cc1OCC1CC1.Cl [Example 109]
ED50 ([3]; intraperitoneal, read-out: Mouse Inhibition of Spontaneous Mobility ED50): 100 mg/kg | ED50 ([2]; read-out: Mouse LPS Challenge ED50): 5 mg/kg

COc1ccc([C@@H]2CN(C(=O)[C@H](C)O)C[C@@]2(C)[C@@H](C)O)cc1OC1CCCC1 [Example 67, 1-[3-((1R)-1-Hydroxyethyl)(3S,4S)-4-(3-cyclopentyloxy-4-methoxyphenyl)-3-methylpyrrolidinyl](2S)-2-hydroxypropan-1-one]
EC50 ([1]; Homo sapiens, Lymphocyte): 603 nM | ED50 ([3]; ip, read-out: ED50, effective dose that decreases spontaneous mobility 50% of control): > 50 mg/kg

COc1ccc([C@@H]2CN(C(=O)C(N)=O)C[C@@]2(C)[C@@H](C)O)cc1OC1CCCC1 [Example 74, 2-[3-((1R)-1-Hydroxyethyl)(3S,4S)-4-(3-cyclopentyloxy-4-methoxyphenyl)-3-methylpyrrolidinyl]-2-oxoacetamide]
EC50 ([1]; Homo sapiens, Lymphocyte): 557 nM

COc1ccc([C@@H]2CN(C(=O)C(N)=O)C[C@@]2(C)[C@@H](C)O)cc1OCC#Cc1ccccc1 [Example 75, 2-{(3S,4S)-3-((R)-1-Hydroxyethyl)-4-[4-methoxy-3-(3-phenylprop-2-ynyloxy)-phenyl]-3-methylpyrrolidin-1-yl}-2-oxo-acetamide]
EC50 ([1]; Homo sapiens, Lymphocyte): 121 nM

COc1ccc([C@@H]2CN(C(=O)C(=O)NCc3ccccc3)C[C@@]2(C)[C@@H](C)O)cc1OC1CCCC1 [Example 83, 2-[3-((1R)-1-Hydroxyethyl)(3S,4S)-4-(3-cyclopentyloxy-4-methoxyphenyl)-3-methylpyrrolidinyl]-2-oxo-N-benzylacetamide]
EC50 ([1]; Homo sapiens, Lymphocyte): 51 nM
